US20260231939A1, “ARTHROPOD CONTROL COMPOSITIONS” (Firmenich SA, priority 2022, published 2026)
Where two headings read alike, the source gives them in different places.

Tested on: Aedes aegypti
Assay: Warm Body assay, mosquito landings on the baited warm body
Type: in vivo
Settings: for pest or weed control at 16 µg/mL / pest or weed control at 400 µg/mL / pest or weed control at 10000 µg/mL: Aedes aegypti, read-out: Percentage of repellence of mosquitoes landing on the warm body; for mosquitoes that still land on the warm body: 10 mg/mL (1 mg absolute applied)
Description: The controlling effect according to the present invention was assessed using an adapted Warm Body assay as defined in Kröber T, Kessler S, Frei J, Bourquin M, Guerin P M. 2010. J Am Mosq Control Assoc. 26:381-386. In this in-vitro assay the number of mosquito landing on a warm body, simulating an attractive host treated with the tested stimuli, was measured in order to assess the repellence effect.
The published protocol has been adapted as the switch from Anopheles gambiae to Ae. aegypti led to a decrease of mosquitoes placed in the tested cage due to the size difference (i.e. 30 mosquitoes instead of 50) and to an increase of lighting since Ae. aegypti is a diurnal mosquitoes (i.e. 150 lux instead of 4 lux).
On the sandblasted glass Petri dish covering the warm body (28.3 cm^2), 100 μL of the compounds diluted at different concentrations in ethanol was applied. The number of mosquito landing on the warm body was counted for each stimulus. Number of landings on pure ethanol (solvent) control treatment was used to normalize the data and calculate the percentage of repellence.

[1] = γ-lactones, 0.016 mg/mL in ethanol
[2] = γ-lactones, 0.4 mg/mL in ethanol
[3] = γ-lactones, 10 mg/mL in ethanol
[4] = more complex lactones (types A, B, C), 0.016 mg/mL
[5] = more complex lactones (types A, B, C), 0.4 mg/mL
[6] = more complex lactones (types A, B, C), 10 mg/mL

CC=CCCCCCC1CCC(=O)O1 (stereo not drawn) [5-oct-6-enyloxolan-2-one]
pest or weed control at 16 µg/mL [1]: 12%
pest or weed control at 400 µg/mL [2]: 78%
pest or weed control at 10000 µg/mL [3]: 100%

CCCCCCC1(C)CCC(=O)O1 (stereo not drawn) [5-hexyl-5-methyloxolan-2-one]
pest or weed control at 16 µg/mL [4]: 43%
pest or weed control at 400 µg/mL [5]: 75%
pest or weed control at 10000 µg/mL [6]: 97%

C=CC=CC1C(=O)OC1CCCCC (stereo not drawn) [3-buta-1,3-dienyl-4-pentyloxetan-2-one]
pest or weed control at 400 µg/mL (β- and ε-lactones, 0.4 mg/mL): > 80%

O=C1CCC2CCCCC2O1 (stereo not drawn) [3,4,4a,5,6,7,8,8a-octahydrochromen-2-one]
pest or weed control at 16 µg/mL [4]: 35%
pest or weed control at 400 µg/mL [5]: 90%
pest or weed control at 10000 µg/mL [6]: 100%

CCC1CCCC(=O)O1 (stereo not drawn) [6-ethyloxan-2-one]
mosquitoes that still land on the warm body: > 50%
pest or weed control at 16 µg/mL (δ-lactones, 0.016 mg/mL): 0%
pest or weed control at 400 µg/mL (δ-lactones, 0.4 mg/mL): 11%
pest or weed control at 10000 µg/mL (δ-lactones, 10 mg/mL): 48%

CC/C=C\CCCCC1CCC(=O)O1 (stereo not drawn) [5-[(Z)-oct-5-enyl]oxolan-2-one]
pest or weed control at 16 µg/mL [1]: 0%
pest or weed control at 400 µg/mL [2]: 75%
pest or weed control at 10000 µg/mL [3]: 100%

CC1CCC(=O)O1 (stereo not drawn) [5-methyloxolan-2-one]
pest or weed control at 16 µg/mL [1]: 0%
pest or weed control at 400 µg/mL [2]: 43%
pest or weed control at 10000 µg/mL [3]: 2%

CCCCCC1CCCC(=O)O1 (stereo not drawn) [6-pentyloxan-2-one]
pest or weed control at 16 µg/mL (δ-lactones, 0.016 mg/mL): 0%
pest or weed control at 400 µg/mL (δ-lactones, 0.4 mg/mL): 91%
pest or weed control at 10000 µg/mL (δ-lactones, 10 mg/mL): 98%

CCC=C1OC(=O)c2ccccc21 [3-propylidene-2-benzofuran-1-one]
pest or weed control at 16 µg/mL [4]: 83%
pest or weed control at 400 µg/mL [5]: 93%
pest or weed control at 10000 µg/mL [6]: 86%

CCCCCC1=COC(=O)CC1 [5-pentyl-3,4-dihydro-2H-pyran-2-one]
pest or weed control at 16 µg/mL [4]: 60%
pest or weed control at 400 µg/mL [5]: 69%
pest or weed control at 10000 µg/mL [6]: 97%

C=CC1CCCC(=O)O1 (stereo not drawn) [6-ethenyloxan-2-one]
mosquitoes that still land on the warm body: prevents any mosquito from landing
pest or weed control at 16 µg/mL (δ-lactones, 0.016 mg/mL): 31%
pest or weed control at 400 µg/mL (δ-lactones, 0.4 mg/mL): 30%
pest or weed control at 10000 µg/mL (δ-lactones, 10 mg/mL): 100%

CCC=CC[C@@H]1CCCC(=O)O1 [(6S)-6-pent-2-enyloxan-2-one]
pest or weed control at 16 µg/mL (δ-lactones, 0.016 mg/mL): 73%
pest or weed control at 400 µg/mL (δ-lactones, 0.4 mg/mL): 96%
pest or weed control at 10000 µg/mL (δ-lactones, 10 mg/mL): 96%

CCC=CCCC1(C)CCC(=O)O1 (stereo not drawn) [5-hex-3-enyl-5-methyloxolan-2-one]
pest or weed control at 16 µg/mL [1]: 39%
pest or weed control at 400 µg/mL [2]: 79%
pest or weed control at 10000 µg/mL [3]: 96%

CCCCCCC1CCC(=O)O1 (stereo not drawn) [5-hexyloxolan-2-one]
pest or weed control at 16 µg/mL [1]: 0%
pest or weed control at 400 µg/mL [2]: 69%
pest or weed control at 10000 µg/mL [3]: 92%

CCCCCCCCC1CCC(=O)O1 (stereo not drawn) [5-octyloxolan-2-one]
pest or weed control at 16 µg/mL [1]: 12%
pest or weed control at 400 µg/mL [2]: 52%
pest or weed control at 10000 µg/mL [3]: 45%

CCC#CCCC1CCCC(=O)O1 (stereo not drawn) [6-hex-3-ynyloxan-2-one]
pest or weed control at 16 µg/mL (δ-lactones, 0.016 mg/mL): 0%
pest or weed control at 400 µg/mL (δ-lactones, 0.4 mg/mL): 80%
pest or weed control at 10000 µg/mL (δ-lactones, 10 mg/mL): 97%

C=CCCC1CCCCC(=O)O1 (stereo not drawn) [7-but-3-enyloxepan-2-one]
pest or weed control at 16 µg/mL (β- and ε-lactones, 0.016 mg/mL): 43%
pest or weed control at 400 µg/mL (β- and ε-lactones, 0.4 mg/mL): 75%
pest or weed control at 10000 µg/mL (β- and ε-lactones, 10 mg/mL): 99%

CC=CCCC1CCC(=O)O1 (stereo not drawn) [5-pent-3-enyloxolan-2-one]
pest or weed control at 16 µg/mL [1]: 0%
pest or weed control at 400 µg/mL [2]: 95%
pest or weed control at 10000 µg/mL [3]: 100%

CC(C)(C)C1CCCCC(=O)O1 (stereo not drawn) [7-tert-butyloxepan-2-one]
pest or weed control at 16 µg/mL (β- and ε-lactones, 0.016 mg/mL): 0%
pest or weed control at 400 µg/mL (β- and ε-lactones, 0.4 mg/mL): 0%
pest or weed control at 10000 µg/mL (β- and ε-lactones, 10 mg/mL): 66%

CC(C)C1OC(=O)C1(C)C (stereo not drawn) [3,3-dimethyl-4-propan-2-yloxetan-2-one]
pest or weed control at 16 µg/mL (β- and ε-lactones, 0.016 mg/mL): 36%
pest or weed control at 400 µg/mL (β- and ε-lactones, 0.4 mg/mL): < 40%
pest or weed control at 10000 µg/mL (β- and ε-lactones, 10 mg/mL): 100%

CCCCCCCCCCC1CCC(=O)O1 (stereo not drawn) [5-decyloxolan-2-one]
pest or weed control at 16 µg/mL [1]: 2%
pest or weed control at 400 µg/mL [2]: 14%
pest or weed control at 10000 µg/mL [3]: 60%

CCCCCCCC1=COC(=O)CC1 [5-heptyl-3,4-dihydro-2H-pyran-2-one]
pest or weed control at 16 µg/mL [4]: 0%
pest or weed control at 400 µg/mL [5]: 95%
pest or weed control at 10000 µg/mL [6]: 100%

CCCCCC1CCC(=O)O1 (stereo not drawn) [5-pentyloxolan-2-one]
pest or weed control at 16 µg/mL [1]: 9%
pest or weed control at 400 µg/mL [2]: 56%
pest or weed control at 10000 µg/mL [3]: 99%

CCC=CCCCCCCC1CCC(=O)O1 (stereo not drawn) [5-dec-7-enyloxolan-2-one]
pest or weed control at 16 µg/mL [1]: 17%
pest or weed control at 400 µg/mL [2]: 47%
pest or weed control at 10000 µg/mL [3]: 85%

CCCCCC=CCC1CCC(=O)O1 (stereo not drawn) [5-oct-2-enyloxolan-2-one]
pest or weed control at 16 µg/mL [1]: 85%
pest or weed control at 400 µg/mL [2]: 100%
pest or weed control at 10000 µg/mL [3]: 96%

CC/C=C/CCCCC1CCC(=O)O1 (stereo not drawn) [5-[(E)-oct-5-enyl]oxolan-2-one]
pest or weed control at 16 µg/mL [1]: 0%
pest or weed control at 400 µg/mL [2]: 87%
pest or weed control at 10000 µg/mL [3]: 100%

CCCCCCC1=COC(=O)CC1 [5-hexyl-3,4-dihydro-2H-pyran-2-one]
pest or weed control at 16 µg/mL [4]: 11%
pest or weed control at 400 µg/mL [5]: 75%
pest or weed control at 10000 µg/mL [6]: 98%

CCCC=CC1CCC(=O)O1 (stereo not drawn) [5-pent-1-enyloxolan-2-one]
pest or weed control at 16 µg/mL [1]: 52%
pest or weed control at 400 µg/mL [2]: 79%
pest or weed control at 10000 µg/mL [3]: 100%

C=CCCC1CCC(=O)O1 (stereo not drawn) [5-but-3-enyloxolan-2-one]
pest or weed control at 16 µg/mL [1]: 57%
pest or weed control at 400 µg/mL [2]: 75%
pest or weed control at 10000 µg/mL [3]: 100%

CCCCC1CCC(=O)O1 (stereo not drawn) [5-butyloxolan-2-one]
pest or weed control at 16 µg/mL [1]: 41%
pest or weed control at 400 µg/mL [2]: 44%
pest or weed control at 10000 µg/mL [3]: 100%

CCCCCC1OC(=O)CC1C (stereo not drawn) [4-methyl-5-pentyloxolan-2-one]
pest or weed control at 16 µg/mL [4]: 36%
pest or weed control at 400 µg/mL [5]: 72%
pest or weed control at 10000 µg/mL [6]: 100%

C=CCCCCCCC1CCC(=O)O1 (stereo not drawn) [5-oct-7-enyloxolan-2-one]
pest or weed control at 16 µg/mL [1]: 46%
pest or weed control at 400 µg/mL [2]: 69%
pest or weed control at 10000 µg/mL [3]: 80%

C=CCCCC1CCCCC(=O)O1 (stereo not drawn) [7-pent-4-enyloxepan-2-one]
pest or weed control at 400 µg/mL (β- and ε-lactones, 0.4 mg/mL): 95%
pest or weed control at 10000 µg/mL (β- and ε-lactones, 10 mg/mL): 100%
Percentage of repellence of mosquitoes landing on the warm body (β- and ε-lactones, 0.4 mg/mL): 95%

CCCCCC1CCCCC(=O)O1 (stereo not drawn) [7-pentyloxepan-2-one]
pest or weed control at 400 µg/mL (β- and ε-lactones, 0.4 mg/mL): 52%
pest or weed control at 10000 µg/mL (β- and ε-lactones, 10 mg/mL): 98%
Percentage of repellence of mosquitoes landing on the warm body (β- and ε-lactones, 0.4 mg/mL): 52%

CC/C=C\CC/C=C/C1CCC(=O)O1 (stereo not drawn) [5-[(1E,5Z)-octa-1,5-dienyl]oxolan-2-one]
pest or weed control at 16 µg/mL [1]: 52%
pest or weed control at 400 µg/mL [2]: 65%
pest or weed control at 10000 µg/mL [3]: 97%

CC1(C)CC=CC2(C)OC(=O)CC12 (stereo not drawn) [4,4,7a-trimethyl-3a,5-dihydro-3H-1-benzofuran-2-one]
pest or weed control at 16 µg/mL [4]: 83%
pest or weed control at 400 µg/mL [5]: 92%
pest or weed control at 10000 µg/mL [6]: 100%

CCCCCCC1CCCC(=O)O1 (stereo not drawn) [6-hexyloxan-2-one]
pest or weed control at 16 µg/mL (δ-lactones, 0.016 mg/mL): 0%
pest or weed control at 400 µg/mL (δ-lactones, 0.4 mg/mL): 76%
pest or weed control at 10000 µg/mL (δ-lactones, 10 mg/mL): 91%

C=C/C=C/C1C(=O)OC1CCCCC (stereo not drawn) [(E)-3-buta-1,3-dienyl-4-pentyloxetan-2-one]
pest or weed control at 16 µg/mL (β- and ε-lactones, 0.016 mg/mL): 71%
pest or weed control at 400 µg/mL (β- and ε-lactones, 0.4 mg/mL): 82%
pest or weed control at 10000 µg/mL (β- and ε-lactones, 10 mg/mL): 100%
